# Test results reported in patent publication US20220274947A1, “NOVEL HETEROARYL-TRIAZOLE COMPOUNDS AS PESTICIDES” (Bayer Aktiengesellschaft, priority 2019, published 2022).
# Columns and labels:
# Type in all cases: in vivo
# [1] = test system: Diabrotica balteata; test: Diabrotica balteata spray test; details: 168 h, wheat seeds, larvae, after 7 days, read-out: activity (efficacy: 100% means all seedlings have grown up like in the untreated, uninfected control); for pest or weed control at 32 µg/disc, 100 g/ha: application rate 100 g/ha (=32 μg/well); for pest or weed control at 160 µg/disc, 500 g/ha: application rate 500 g/ha (=160 μg/well)
# Experimental: Diabrotica balteata—Spray Test Solvent: 78.0 parts by weight of acetone • • 1.5 parts by weight of dimethylformamide Emulsifier: alkylarylpolyglycol ether
# (§1) To produce a suitable preparation of active compound, 1 part by weight of active compound is mixed with the stated amount of solvent, and the concentrate is diluted with water, containing an emulsifier concentration of 1000 ppm, to the desired concentration. Further test concentrations are prepared by dilution with emulsifier containing water.
# Soaked wheat seeds (Triticum aestivum) are placed in a multiple well plate filled with agar and some water and are incubated for 1 day to germinate (5 seeds per well). The germinated wheat seeds are sprayed with a test solution containing the desired concentration of the active ingredient. Afterwards each unit is infected with 10-20 larvae of the banded cucumber beetle (Diabrotica balteata).
# After 7 days efficacy in % is determined. 100% means all the seedlings have grown up like in the untreated, uninfected control; 0% means none of the seedlings have grown.
# [2] = test system: Spodoptera frugiperda; test: Spodoptera frugiperda spray test; details: in Zea mays, 168 h, read-out: activity (mortality)
# Experimental: Spodoptera Fruaiperda—Spray Test
# Solvent: 78.0 parts by weight acetone • 1.5 parts by weight dimethylformamide Emulsifier: alkylarylpolyglycol ether
# as §1, with “solvents” for “solvent,”, “and” for “and the concentrate”
# Maize (Zea mays) leaf sections are sprayed with a preparation of the active ingredient of the desired concentration. Once dry, the leaf sections are infested with fall armyworm larvae (Spodoptera frugiperda).
# After 7 days mortality in % is determined. 100% means all caterpillars have been killed and 0% means none of the caterpillars have been killed.
# [3] = test system: Rhipicephalus microplus; test: Rhipicephalus (Boophilus) microplus injection test (BOOPMI Inj); details: 168 h, injection into adult engorged female ticks, egg deposition after 7 days, read-out: activity (efficacy: 100% means all eggs are infertile); for pest or weed control at 0.004 mg: application rate 4 μg/tick; for pest or weed control at 0.02 mg: application rate 20 μg/tick
# Experimental: Rhipicephalus (Boophilus) Microplus—Injection Test (BOOPMI Inj)
# Solvent: dimethyl sulfoxide
# To produce a suitable preparation of active compound, 10 mg of active compound are dissolved in 0.5 mL solvent, and the concentrate is diluted with solvent to the desired concentration.
# Five adult engorged female ticks (Rhipicephalus microplus) are injected with 1 μL compound solution into the abdomen. The ticks are transferred into replica plates and incubated in a climate chamber.
# After 7 days egg deposition of fertile eggs is monitored. Eggs where fertility is not visible are stored in a climate chamber till hatching after about 42 days. An efficacy of 100% means all eggs are infertile; 0% means all eggs are fertile.
# [4] = test system: Rhipicephalus microplus; test: Rhipicephalus (Boophilus) microplus in-vitro contact test, larval cattle tick, strain Parkhurst (BOOPMI Cont); details: application rate 5 μg/cm^2 (=500 g/ha), tick larvae, after 48 hours, read-out: activity (efficacy: 100% means all larvae are dead or moribund)
# Experimental: Rhipicephalus (Boophilus) Microplus—In-Vitro Contact Tests Larval Cattle Tick (Strain Parkhurst, Resistant Against Synthetic Pyrethroids) (BOOPMI Cont)
# 9 mg compound is solved in 1 mL acetone and diluted with acetone to the desired concentration. 250 μL of the test solution is filled in 25 mL glass test tubes and homogeneously distributed on the inner walls by rotation and tilting on a shaking device (2 h at 30 rpm). With a compound concentration of 900 ppm, an inner surface of 44.7 cm^2 and a homogeneous distribution, a dose of 5 μg/cm^2 is achieved.
# After the solvent has evaporated, each test tube is filled with 20-50 cattle tick larvae (Rhipicephalus microplus), closed with a perforated lid and incubated in a horizontal position at 85% relative humidity and 27° C. in an incubator. After 48 hours efficacy is determined. The larvae are patted on the ground of the tubes and negative geotactic behavior is recorded.
# An efficacy of 100% means all larvae are dead or moribund; 0% means no larvae are dead or moribund.
# [5] = test system: Rhipicephalus sanguineus; test: Rhipicephalus sanguineus in-vitro contact test, adult brown dog ticks (RHIPSA Cont); details: 48 h, after 48 hours, read-out: activity (efficacy: 100% means all ticks are dead or moribund); for pest or weed control at 5 µg/cm2, 500 g/ha: application rate 5 μg/cm^2 (=500 g/ha); for pest or weed control at 1 µg/cm2, 100 g/ha: application rate 1 μg/cm^2 (=100 g/ha)
# Experimental: Rhipicephalus sanguineus-In-Vitro Contact Tests with Adult Brown Dog Ticks ([…] Cont) 9 mg compound is solved in 1 mL acetone and diluted with acetone to the desired concentration. 250 μL of the test solution is filled in 25 mL glass test tubes and homogeneously distributed on the inner walls by rotation and tilting on a shaking device (2 h at 30 rpm). […] After 48 hours efficacy is determined. The ticks are patted on the ground of the tubes and are incubated on a heating plate at 45-50° C. for at most 5 minutes. Immotile or uncoordinated moving ticks, which are not able to escape the heat by climbing upwards, are marked as dead or moribund.
SMILES,"pest or weed control at 32 µg/disc, 100 g/ha [1] [%]",mortality at 100 g/ha [2] [%],pest or weed control at 0.004 mg [3] [%],pest or weed control at 0.02 mg [3] [%],pest or weed control at 5 µg/cm2 [4] [%],"pest or weed control at 160 µg/disc, 500 g/ha [1] [%]",mortality at 500 g/ha [2] [%],"pest or weed control at 5 µg/cm2, 500 g/ha [5] [%]","pest or weed control at 1 µg/cm2, 100 g/ha [5] [%]"
"CC(NC(=O)c1cc(C(F)(F)F)cc(C(F)(F)F)c1)c1nc(Cl)nn1-c1ccc(C#N)cn1 (racemic) [I-39, 3,5-di(trifluoromethyl)-N-{1-[3-chloro-1-(3-cyano-pyridin-6-yl)-1H-1,2,4-triazol-5-yl]ethyl}-benzamide]",100,100,100,100,100,–,–,–,–
CC(C)Oc1nc([C@H](C)NC(=O)c2cc(Cl)cc(C(F)(F)F)c2)n(-c2ccc(C#N)cn2)n1 [I-16],–,–,100,100,100,100,100,–,–
CC(C)Oc1nc([C@H](C)NC(=O)c2cc(C(F)(F)F)cc(C(F)(F)F)c2)n(-c2ccc(C#N)cn2)n1 [I-17],100,100,100,100,100,100,100,–,–
CC(C)Oc1nc([C@H](C)NC(=O)c2cc(Cl)cc(Cl)c2)n(-c2ccc(C#N)cn2)n1 [I-18],–,–,–,100,90,100,83,–,–
CC(C)c1nc([C@H](C)NC(=O)c2cccc(C(F)(F)F)n2)n(-c2ccc(C#N)cn2)n1 [I-22],100,–,80,100,–,–,–,–,–
CC(NC(=O)c1cc(Br)cc(C(F)(F)F)c1)c1nc(Cl)nn1-c1ccc(C#N)cn1 (stereo not drawn) [I-40],100,100,100,100,100,–,–,100,–
C[C@H](NC(=O)c1cc(Cl)cc(SC(F)(F)F)c1)c1nc(C2CC2)nn1-c1ccc(C#N)cn1 [I-45],100,100,100,–,100,–,–,–,–
CC(NC(=O)c1cc(Cl)cc(C(F)(F)F)c1)c1nc(Br)nn1-c1ccc(C#N)cn1 (stereo not drawn) [I-49],100,100,–,–,100,–,–,–,–
CC(NC(=O)c1cc(Cl)nc(C(F)(F)F)c1)c1nc(Cl)nn1-c1ccc(C#N)cn1 (stereo not drawn) [I-52],100,100,–,–,100,–,–,–,–
CC(NC(=O)c1cc(Br)cc(Br)c1)c1nc(Br)nn1-c1ccc(C#N)cn1 (stereo not drawn) [I-53],100,100,–,–,100,–,–,–,–
CC(NC(=O)c1cc(Br)cc(Br)c1)c1nc(Cl)nn1-c1ccc(C#N)cn1 (stereo not drawn) [I-54],–,100,–,–,100,–,–,–,–
CC(NC(=O)c1cc(Br)cc(OC(F)(F)F)c1)c1nc(Cl)nn1-c1ccc(C#N)cn1 (stereo not drawn) [I-55],100,100,–,–,80,–,–,–,–
CC(NC(=O)c1cc(Br)cc(OC(F)(F)F)c1)c1nc(Br)nn1-c1ccc(C#N)cn1 (stereo not drawn) [I-56],100,100,–,–,100,–,–,–,–
CC(NC(=O)c1cc(Cl)cc(C(F)(F)F)c1)c1nc(Cl)nn1-c1ccc(C#N)cn1 (stereo not drawn) [I-57],100,100,–,–,100,–,–,–,–
CC(NC(=O)c1cc(Cl)cc(Cl)c1)c1nc(Cl)nn1-c1ccc(C#N)cn1 (stereo not drawn) [I-58],–,83,–,–,100,–,–,–,–
CC(NC(=O)c1cncc(C(F)(F)F)c1)c1nc(Cl)nn1-c1ccc(C#N)cn1 (stereo not drawn) [I-59],–,100,80,–,100,–,–,–,–
CC(NC(=O)c1cc(Cl)cc(OC(F)(F)F)c1)c1nc(Cl)nn1-c1ccc(C#N)cn1 (stereo not drawn) [I-60],100,83,–,–,100,–,–,–,–
COc1nc([C@H](C)NC(=O)c2cc(F)cc(C#N)c2)n(-c2ccc(C#N)cn2)n1 [I-62],100,–,100,–,90,–,–,–,–
Cc1nc([C@H](C)NC(=O)c2cccc(Cl)n2)n(-c2ccc(C#N)cn2)n1 [II-51],–,–,100,100,90,–,–,100,100
Cc1nc([C@H](C)NC(=O)c2cc(Br)cc(C(F)(F)F)n2)n(-c2ccc(C#N)cn2)n1 [II-55],–,–,100,100,100,–,–,–,–
Cc1nc([C@H](C)NC(=O)c2ccc(Cl)cn2)n(-c2ccc(C#N)cn2)n1 [II-56],–,–,80,100,80,–,–,–,–
C[C@H](NC(=O)c1cc(Br)cc(C(F)(F)F)n1)c1ncnn1-c1ccc(C#N)cn1 [II-58],–,–,–,0,–,–,–,–,–
C[C@H](NC(=O)c1cc(Cl)cc(C(F)(F)C(F)(F)F)c1)c1ncnn1-c1nccs1 [II-66],100,–,100,100,100,100,100,–,–
C[C@H](NC(=O)c1cc(Cl)cc(C(F)(F)C(F)(F)F)c1)c1ncnn1-c1ncc(Br)s1 [II-67],–,–,100,100,100,100,100,–,–
C[C@H](NC(=O)c1cc(Cl)cc(C(F)(F)C(F)(F)F)c1)c1ncnn1-c1ncc(Cl)s1 [II-68],100,–,80,100,100,100,83,100,–
CC(C)Oc1cc(Br)cc(C(=O)N[C@@H](C)c2ncnn2-c2ccc(C#N)cn2)c1 [II-108],100,100,80,–,90,–,–,–,80
C[C@H](NC(=O)c1cc(Br)cc(Br)c1)c1ncnn1-c1ccc(C#N)cn1 [II- 13],–,–,–,–,–,100,–,–,–
C[C@H](NC(=O)c1cc(Cl)cc(OC(F)(F)F)c1)c1ncnn1-c1cc(NC(=O)c2ccc(F)cc2)ccn1 [II- 20],–,–,–,–,–,–,100,–,–
